We go through three molecules from article PMC12568646, “Enzymatic combinatorial synthesis of E-64 and related cysteine protease inhibitors” (Nature Chemical Biology, 2025).

Structures are written as SMILES.

One assay has as its target T1, Cp1D (Aspergillus flavus, UniProt A0A7U2QR00).
T1 construct: gene F9C07_2276917; full-length intron-free ORF in pET28a, 6xHis-tagged, expressed in E. coli BL21(DE3)
T1 sequence (A0A7U2QR00 1-463): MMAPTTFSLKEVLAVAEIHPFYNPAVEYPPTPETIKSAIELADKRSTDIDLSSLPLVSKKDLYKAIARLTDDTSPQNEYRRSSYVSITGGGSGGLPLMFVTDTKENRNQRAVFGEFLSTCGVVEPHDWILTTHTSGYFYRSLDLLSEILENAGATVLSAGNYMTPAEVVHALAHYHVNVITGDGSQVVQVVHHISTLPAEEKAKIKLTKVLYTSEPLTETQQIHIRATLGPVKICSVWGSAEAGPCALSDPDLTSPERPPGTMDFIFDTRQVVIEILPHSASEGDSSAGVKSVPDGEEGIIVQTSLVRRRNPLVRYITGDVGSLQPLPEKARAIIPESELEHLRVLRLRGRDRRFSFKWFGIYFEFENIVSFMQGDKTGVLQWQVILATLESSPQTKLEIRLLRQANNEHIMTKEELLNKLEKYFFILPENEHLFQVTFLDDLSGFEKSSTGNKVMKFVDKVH
Put plainly: LC-MS of amide product formation. It is filed as biochemical. Conditions: 5 mM agmatine, 10 mM ATP, 10 mM MgCl2, 50 mM sodium phosphate pH 8.0, 30 °C.

The target in a further assay is T2, papain (Carica papaya, UniProt P00784).
T2 construct: mature native enzyme, twice-crystallized from papaya latex (Sigma)
Nature of the assay: X-ray co-crystal structure. Conditions: covalent, active-site Cys25. It is filed as binding.

In a further assay the target is T3, cathepsin B (Homo sapiens, UniProt P07858).
T3 construct: gene CTSB
Nature of the assay: fluorogenic Z-Phe-Arg-AMC assay. To be noted: 40 μM Z-Phe-Arg-AMC, citrate phosphate pH 5.5, 5 mM DTT, 37 °C; covalent, irreversible. It is filed as biochemical.

Another assay has as its system T4, Cp1B.
T4 construct: full-length intron-free ORF in pET28a (pML8010), 6xHis-tagged, expressed in E. coli BL21(DE3); domains span residues 5-502
Put plainly: X-ray crystal structure, […] Å. Details: species or system Aspergillus flavus. To be noted: ATP-binding site; crystal set up with ATP, MgCl2 and (±)-t-ES; MES also bound.

T2 sequence (P00784 134-345): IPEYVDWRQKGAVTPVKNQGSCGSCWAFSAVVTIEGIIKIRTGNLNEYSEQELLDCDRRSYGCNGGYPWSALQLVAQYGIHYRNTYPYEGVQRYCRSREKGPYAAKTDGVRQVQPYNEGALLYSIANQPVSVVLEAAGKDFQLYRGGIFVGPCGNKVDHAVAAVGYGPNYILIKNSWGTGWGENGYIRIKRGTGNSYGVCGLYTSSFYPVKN

As to `CC[C@H](C)[C@H](NC(=O)[C@@H]1O[C@H]1C(=O)O)C(=O)O` [(2R,3R)-t-ES-L-Ile], at Cp1D, the “KM (apparent)” value is “much more efficient compared to that toward (2R,3R)-t-ES-L-Ile”. What is called IC50 is the concentration that gives 50% inhibition. Low readings indicate inhibition by little substance, high ones a need for much substance. With `NCCCCCCCCNC(=O)[C@@H](NC(=O)[C@H]1O[C@@H]1C(=O)O)C1CCC1` [(2S,3S)-t-ES-a9-b7], on papain, the X-ray co-crystal structure result was “(2S,3S)-t-ES-a9-b7 was observed to be bound covalently to the active site cysteine”. Further, inhibition against cathepsin B was half-maximal at 14 ± 1.1 nM (IC50). Turning to `Nc1ncnc2c1ncn2[C@@H]1O[C@H](CO)[C@@H](O)[C@H]1O` [adenosine], in the assay with Cp1B, the “X-ray crystal structure, 2.7 Å” value is “crystal structure of Cp1B complexed with adenosine and 2-morpholinoethanesulfonic acid (MES) was determined”.
